# Patent US10676436B2, “NLRX1 ligands” (Landos Biopharma, Inc., priority 2018, dated 2020)
# Legend:
# Human NLRX1 (NLRX1-WT) = target: T1, Human NLRX1 (NLRX1-WT) (Homo sapiens, UniProt Q86UT6); experiment: Surface plasmon resonance binding to NLRX1-WT
# T1 construct: made in house; host or cells: Pichia pastoris
# Description: (§1) NLRX1 production and purification. Human NLRX1 (www.uniprot.org; UniProtKB—Q86UT6 (NLRX1 HUMAN)) was cloned into E. coli, amplified and transfected in Pichia pastoris. P. pastoris was plated onto adenine selective media. Stable transfected colonies were selected and grown within YPD broth at 30° C. for 24 hours, 240 RPM shaking. Starter culture was used to inoculate base media (1% yeast extract, 2% peptone, 1% sorbitol, 2% yeast nitrogen base) containing biotin and buffered with potassium phosphate. Inoculated base media was incubated for 48 hours at 30° C., 240 RPM. P. pastoris was then pelleted by centrifugation and resuspended in expression media (1% sorbitol, 2% yeast nitrogen base) containing biotin and buffered with potassium phosphate. Culture was induced daily for protein production through addition of methanol and incubated for a total of 4 days at 28° C., 240 RPM. After incubation, cells were pelleted by centrifugation and lysed by sonication. Recombinant NLRX1 protein was purified by fast protein liquid chromatography (AktaPrime) using immobilized metal affinity chromatography. Fractions of protein were eluted in 1 mL aliquots and evaluated for NLRX1 content. A mutated NLRX1 protein was generated using similar methods to disrupt binding within the predicted binding site through altering four residues to alanine (D677A, F680A, F681A, and E684A).
# (§2) A Biacore T200 was used to evaluate binding to the NLRX1 protein. NLRX1-WT and NLRX1-Mutant were used as proteins to immobilize onto the CM5 sensor chip. NLRX1-WT was diluted in 10 mM sodium acetate buffer at pH 4.0 and immobilized onto the flow cell to a level of ˜3700 RU, using standard amine coupling chemistry. NLRX1-Mutant was diluted in 10 mM sodium acetate buffer at pH 4.0 and immobilized onto the flow cell to a level of ˜3100 RU, using standard amine coupling chemistry. 20 mM MOPS, 150 mM NaCl, 5 mM sodium acetate, 1 mM EDTA, 0.05% Tween-20, pH 8.0 buffer (Running buffer) was used as the immobilization running buffer. Based on the immobilized response values, theoretical Rmax values were calculated. The Rmax values assume 1:1 interaction mechanism. Overnight kinetics were performed for all analytes binding to the immobilized proteins. The kinetics experiments were performed in the μL/min. presence of running buffer+1% DMSO. The flow rate of all solutions was maintained at 50 Analyte concentrations were 0 μM, 2.5 μM, 5 μM 10 μM 20 μM and 40 μM.
# [1] = target: T2, mutated NLRX1 protein (D677A, F680A, F681A, E684A) (Homo sapiens, UniProt Q86UT6, D677A/E684A/F680A/F681A); experiment: Surface plasmon resonance binding to NLRX1-Mutant
# T2 construct: made in house; host or cells: Pichia pastoris (by 'similar methods')
# T2 sequence (Q86UT6 87-975 D677A/F680A/F681A/E684A): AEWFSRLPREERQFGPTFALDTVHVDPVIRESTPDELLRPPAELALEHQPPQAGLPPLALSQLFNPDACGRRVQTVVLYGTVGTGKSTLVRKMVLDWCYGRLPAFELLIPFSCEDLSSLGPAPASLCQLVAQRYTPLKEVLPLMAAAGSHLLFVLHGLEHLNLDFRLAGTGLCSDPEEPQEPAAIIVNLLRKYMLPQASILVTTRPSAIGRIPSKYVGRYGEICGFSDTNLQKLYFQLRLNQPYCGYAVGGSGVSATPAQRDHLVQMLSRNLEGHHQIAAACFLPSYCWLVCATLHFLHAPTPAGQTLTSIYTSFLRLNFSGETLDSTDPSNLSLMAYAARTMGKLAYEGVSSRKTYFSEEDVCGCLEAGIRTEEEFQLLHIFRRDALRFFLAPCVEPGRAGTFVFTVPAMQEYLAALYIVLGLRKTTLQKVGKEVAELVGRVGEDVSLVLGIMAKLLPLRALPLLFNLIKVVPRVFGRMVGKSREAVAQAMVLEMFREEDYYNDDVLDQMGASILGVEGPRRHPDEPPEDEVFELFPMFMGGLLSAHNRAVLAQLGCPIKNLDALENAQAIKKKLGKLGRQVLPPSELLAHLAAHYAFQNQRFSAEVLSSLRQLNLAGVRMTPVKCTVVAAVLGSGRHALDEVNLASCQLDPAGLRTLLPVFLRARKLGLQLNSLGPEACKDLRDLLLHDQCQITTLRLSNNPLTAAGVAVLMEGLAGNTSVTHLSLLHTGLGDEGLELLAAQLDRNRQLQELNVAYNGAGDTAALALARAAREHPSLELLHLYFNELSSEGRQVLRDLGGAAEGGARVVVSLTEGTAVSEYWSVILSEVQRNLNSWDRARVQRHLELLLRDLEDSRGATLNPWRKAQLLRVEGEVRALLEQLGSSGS
# Description: as §1
# as §2, with “The Rmax values assume 1:1 interaction mechanism. Overnight kinetics were performed for all analytes binding to the immobilized proteins. The kinetics experiments were performed in the μL/min. presence of running buffer+1% DMSO. The flow rate of all solutions was maintained at 50 Analyte concentrations were 0 μM, 2.5 μM, 5 μM 10 μM 20 μM and 40 μM.” left out
# [2] = tested on: peripheral blood mononuclear cells (PBMCs) of ulcerative colitis patients; experiment: Ex vivo treatment of PBMCs of ulcerative colitis patients, flow cytometry; assay type: cell-based, human
# Description: Samples were obtained from male and female donors clinically categorized as having moderate to severe disease. Age and current medications were not used as exclusion criteria. Whole blood was collected into heparinized vacuum tubes. Whole blood was diluted 1:3 volumes with sterile phosphate buffered saline. LeucoSep (Greiner) were prepared by addition of Lymphocyte Separation Media followed by 15 second centrifugation at max speed. Diluted whole blood was added to LeucoSep tubes. After centrifugation (2000×g, 20 min), PBMCs were collected from the interphase by Pasteur pipette. Remaining red blood cells were lysed by hypotonic lysis and suspension was filtered through a […] cell strainer. PBMCs were washed and re-suspended in sterile cell culture media, RPMI containing 10% fetal bovine serum, 2.5% Hepes solution, 1% L-glutamine, 1% penicillin/streptomycin, 1% sodium pyruvate, and 1% essential amino acids (complete RPMI).
# Target cells were incubated for 24 h in complete RPMI culture media at 37° C. Cells were incubated in the presence of NX-13 ranging in concentration from 1 nM to 100 nM. NX-13 stock solution was prepared at 100 mM in dimethyl sulfoxide (DMSO) and diluted to desired concentration in culture media. DMSO concentrations were adjusted to be equal across all doses and vehicle treatments. Six hours prior to assay, cells were stimulated with phorbol 12-myristate 13-acetate (PMA) and ionomycin to stimulate cellular activation. Cells were assayed for desired data at 24 h.
# Prior to collection, cells were incubated BD GolgiStop (2 μL GolgiStop to 3 mL of total media) to allow intracellular accumulation of cytokines. Cells were live stained with extracellular (CD45, CD3, CD4, CD8, CD11b) and intracellular (FOXP3, IL-10, IL-4, IFNγ, TNFα) in a sequential manner. Data was acquired on a BD FACs Celesta and analyzed using FACSDiva. Non-viable and non-singlet cells were excluded from analysis. Data is presented as percentage of CD45+ cells or % viable, singlets.
# [3] = tested on: MDR1a−/− model of colitis; experiment: MDR1a−/− model of colitis (chronic model of IBD); assay type: in vivo, mice
# Description: MDR1a−/− model. Mice deficient in MDR1a spontaneously develop colitis. MDR1a−/− began receiving NX-13 treatment (oral, 20 mg/kg) at 4 weeks of age and continued treatment until 10 weeks of age. Mice were weighed and scored weekly. NX-13 was prepared within a 0.5% methylcellulose (12-15 cP) solution. Dosage used was 20 mg/kg delivered once daily. Mice were weighed on a weekly basis to update dosage formulation. Dosage was calculated based off mean body weights for each gender. Oral dosage was delivered by orogastric gavage of dosage in 0.2 mL volume. Colons were collected into RPMI/FBS buffer containing collagenase (300 U/mL) and DNase (50 U/mL) for digestion. Tissues were digested for 60 minutes under stirring at 37° C. Resultant cellular suspensions were filtered through 100 μm strainers, centrifuged (300× g, 8 min), and washed in fresh RPMI. Following filtration of the resulting single cell suspensions, immune cells were purified by Percoll gradient of cell-containing 40% Percoll overlayed onto 70% Percoll solution. After centrifugation, interphase was collected and washed to obtain enriched colonic lamina propria cell fractions. Cells were labeled with mixtures of extracellular (CD45, CD3, CD4, CD8, CD19, NK1.1, CD25, F4/80, CD11b, Gr1, CX3CR1, CD64) and intracellular (Tbet, RORγT, FOXP3, IFNγ, IL17, IL10) antibodies in a sequential live staining in 96-well plates. Data was acquired using a FACS Celesta flow cytometer with FACSDiva software. H&E stained colonic sections were prepared from portions of colons collected into 10% buffered formalin and embedded in paraffin. Slides were examined by a board-certified veterinary pathologist via an Olympus microscope and images were collected with Image-Pro software. Samples were scored (0-4) for leukocytic infiltration, epithelial erosion and mucosal thickening.
# [4] = ulcerative colitis samples, 1 nM
# [5] = ulcerative colitis samples, 1 to 100 nM, 24 h
# [6] = six weeks of treatment, flow cytometry
# T1 sequence (Q86UT6 87-975): as the sequence (Q86UT6 87-975 D677A/F680A/F681A/E684A) above, with A591D, A594F, A595F, A598E counted along it
compound,measurement,setting,value
"Cc1cccc(Oc2cc(Oc3cccc(C)n3)cc(Oc3cccc(C)n3)c2)n1 [NX-13, 1,3,5-tris (6-methylpyridin-2-yloxy) benzene]",binding to NLRX1 by surface plasmon resonance (in words),Human NLRX1 (NLRX1-WT),bind to NLRX1
same,Kd,"Human NLRX1 (NLRX1-WT); 1:1 binding model fitting, read-out: steady state dissociation constant KD",30.2 µM
same,binding to the mutated NLRX1 protein,[1],Loss of binding
same,amount of TNFα present in each cell (mean fluorescent intensity),[2]; in a dose dependent manner,reduced
same,concentrations with significant reductions of IFNγ producing cells,[2]; ulcerative colitis samples,≥ 10 nM
same,concentrations with significant reductions of TNFα producing cells,[2]; ulcerative colitis samples,≥ 10 nM
same,IFNγ producing cells at 1 nM,[2]; [4],significant decrease
same,TNF producing cells at 1 nM,[2]; [4],significant reductions were not observed
same,percentage of IFNγ producing CD4+ T cells,[2]; [5],decreased
same,percentage of TNFα producing CD4+ T cells,[2]; [5],decreased
same,development of leukocyte aggregates and thickening of the mucosa,[3]; after six weeks of treatment,protected against
same,overall leukocytic infiltration and epithelial erosion,[3]; after six weeks of treatment,reduced
same,maximal observed reduction of disease activity,"[3]; oral 20 mg/kg once daily, week six of treatment",70%
same,colonic pathology,"[3]; oral, six weeks of treatment, H&E",greatly reduced
same,numbers of F4/80hi macrophages,[3]; [6],greatly reduced
same,numbers of IL-17 and IFNγ producing T cells,[3]; [6],greatly reduced
same,proportions of Th1 cells in the colonic lamina propria,[3]; [6],reduces
same,proportions of neutrophils in the colonic lamina propria,[3]; [6],reduces
same,proportions of regulatory CD4+ T (Treg) cells in the colon,[3]; [6],increased
